Reference: patent publication US4031259A, “Process of preparing nutritive sweetening compositions” (General Foods Corporation, priority 1975, dated 1977)
Where a SMILES comes first, the peptide text is derived from it.

Key:
[1] = Rate of solubility: time to complete dissolution in room temperature distilled water (10 ml, pH 5.7, constant stirring); Solubility Factor derived from it; assay type: physicochemical; conditions: APM alone (control); for Rate of Solubility (time until complete dissolution): in 10 ml room temperature distilled water, pH 5.7, magnetic stirrer, B3: incomplete dissolution after this time
Experimental: The following represents a broad ratio of systems tested in order to evaluate the effect protein hydrolysates have on the rate of solubility of APM.
All systems were prepared by dissolving the ingredients in water and freeze-drying. Evaluations were made in room temperature distilled water (10 ml) having a pH of 5.7 with constant stirring by a magnetic stirrer. The time was clocked from the instant the powder hit the water until complete dissolution.
Samples A1 - A4 consisted of 1 g. each in 10 ml; samples B1 - B4 (controls) consisted of the amount indicated, also in 10 ml., the total amount of APM in the controls being equivalent to the respective test samples (A1 - A4). Where applicable, the ratio expressed is of APM to soy isolate respectively.
A convenient way of expressing the change in the solubility rate of a given amount of sweetener after combining with protein hydrolysate and dried is called the "Solubility Factor."
This is expressed as follows: [formula] the higher the SF value, the more appreciable the improvement in solubility.

[2] = as much as; cited from earlier work

Compound	Rate of Solubility (time until complete dissolution) [1] [min]	further results
COC(=O)[C@H](Cc1ccccc1)NC(=O)[C@@H](N)CC(=O)O [Sample B2, L-aspartyl-L-phenylalanine methyl ester] (H-Asp-Phe-OMe)	11	
COC(=O)[C@H](Cc1ccccc1)NC(=O)[C@@H](N)CC(=O)O [Sample B4, L-aspartyl-L-phenylalanine methyl ester] (H-Asp-Phe-OMe)		Rate of Solubility (incomplete dissolution after) ([1]; 200 mgs. in 10 ml room temperature distilled water, pH 5.7): > 1 h
COC(=O)[C@H](Cc1ccccc1)NC(=O)[C@@H](N)CC(=O)O [APM, L-aspartyl-L-phenylalanine methyl ester] (H-Asp-Phe-OMe)		sweetness relative to sucrose [2]: ≤ 200 times as sweet as sucrose
COC(=O)[C@H](Cc1ccccc1)NC(=O)[C@@H](N)CC(=O)O [Sample B1, L-aspartyl-L-phenylalanine methyl ester] (H-Asp-Phe-OMe)	7	
COC(=O)[C@H](Cc1ccccc1)NC(=O)[C@@H](N)CC(=O)O [Sample B3, L-aspartyl-L-phenylalanine methyl ester] (H-Asp-Phe-OMe)	> 50	
